Measurements taken from US10793557B2, “Sting agonist compounds” (Merck Sharp & Dohme Corp., priority 2018, dated 2020).

Legend:
full-length WT STING = target: T1, full-length WT STING (Homo sapiens, UniProt Q86WV6, H232R); assay: 3H-cGAMP filtration binding assay (WT STING); details: for EC50: competition with tritiated cGAMP, WT STING membrane
T1 construct: AviTag (after gg linker) (C); HRV3C cleavage site (after gs linker) (C); HIS8 (C); made in house; host or cells: Trichoplusia ni (Hi-Five) insect cells infected with baculovirus (virus generated and amplified in Sf21 cells); used as a washed membrane preparation
Method in brief: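 EC50 values come from 4-parameter fits of remaining filter-bound tritium versus log concentration (10-point, 1:3 dilution). Insect-cell membranes carrying full-length WT STING were incubated 60 min at RT with compound and tritiated cGAMP (16 nM working stock) before filtration.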

full-length HAQ STING = target: T2, full-length HAQ STING (Homo sapiens, UniProt Q86WV6, G230A/H232R/R293Q/R71H); assay: 3H-cGAMP filtration binding assay (HAQ STING); details: competition with tritiated cGAMP, HAQ STING membrane
T2 construct: AviTag (after GG linker) (C); HRV3C cleavage site (after GS linker) (C); HIS8 (C); made in house; host or cells: Trichoplusia ni (Hi-Five) insect cells infected with baculovirus (virus generated and amplified in Sf21 cells); used as a washed membrane preparation
Method in brief: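 Hi-Five (T. ni) membranes overexpressing the STING variant (2.2 ug/ml working) preincubated with compound 60 min at RT in PBS, then [3H]cGAMP (8 nM working stock) added for 60 min at RT. Bound radioactivity captured on GF/B filters and counted by scintillation; EC50 from 4-parameter fit of control-normalized activity.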

[1] = system: secretion of interferon-beta from THP1 cells; assay: IFN-β secretion in THP1 cell culture (5 h); type: cell-based; details: Homo sapiens, THP-1, 5 h, 30 uM cGAMP = 100%; for activation at 30 µM: compound at 30 μM, read-out: % Effect at 30 μM relative to 2′3′-cGAMP; for activation at 3 µM: compound at 3 uM, read-out: % Effect relative to 2′3′-cGAMP (@ 3 uM)
Method in brief: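 IFN-β in supernatant measured by AlphaLISA after a 5 h, 37 °C incubation of THP1 cells with compound (10 concentrations, 30000 down to 1.5 nM, 0.3% DMSO) in low-serum RPMI. Values scaled between DMSO and 30 uM cGAMP controls; 4-parameter curve fit yields EC50.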

T2 sequence (Q86WV6 with tags, fused parts or gaps R71H/G230A/H232R/R293Q): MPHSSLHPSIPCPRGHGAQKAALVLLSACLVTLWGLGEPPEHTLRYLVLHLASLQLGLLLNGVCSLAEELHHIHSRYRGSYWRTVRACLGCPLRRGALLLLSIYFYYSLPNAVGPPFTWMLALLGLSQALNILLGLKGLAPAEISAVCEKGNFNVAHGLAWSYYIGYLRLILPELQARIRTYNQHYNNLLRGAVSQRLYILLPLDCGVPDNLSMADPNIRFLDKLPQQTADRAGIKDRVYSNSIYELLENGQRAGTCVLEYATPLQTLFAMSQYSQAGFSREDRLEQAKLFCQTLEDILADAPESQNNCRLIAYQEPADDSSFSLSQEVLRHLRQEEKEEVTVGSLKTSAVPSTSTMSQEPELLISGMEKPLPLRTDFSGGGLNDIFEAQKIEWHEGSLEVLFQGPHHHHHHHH
T1 sequence (Q86WV6 with tags, fused parts or gaps H232R): as the sequence (Q86WV6 with tags, fused parts or gaps R71H/G230A/H232R/R293Q) above, with H71R, A230G, Q293R counted along it

| SMILES | EC50 (full-length WT STING) [nM] | EC50 (full-length HAQ STING) [nM] | inhibition at 20 µM (full-length WT STING; at 20,000 nM compound) [%] | inhibition at 2 µM (full-length WT STING; at 2,000 nM compound) [%] | activation at 30 µM [1] [%] | activation at 3 µM [1] [%] |
| --- | --- | --- | --- | --- | --- | --- |
| COc1cc2sc(C(=O)CCC(=O)O)cc2nc1OCCCc1ccc2sc(C(=O)CCC(=O)O)cc2c1 [Example 4, 4-(5-(3-((2-(3-carboxypropanoyl)-6-methoxythieno [3,2-b]pyridin-5-yl)oxy)propyl)benzo[b]thiophen-2-yl)-4-oxobutanoic acid] | 33 | 6 | – | – | 93 | – |
| COc1cc2sc(C(=O)CCC(=O)O)cc2cc1CCCOc1c(OC)cc2sc(C(=O)[C@@H]3C[C@H]3C(=O)O)cc2c1F (relative stereo) [Example 85, trans-2-(5-(3-(2-(3-carboxypropanoyl)-6-methoxybenzo[b]thiophen-5-yl)propoxy)-4-fluoro-6-methoxybenzo[b]thiophene-2-carbonyl)cyclopropane carboxylic acid] | 9010 | 360 | – | – | 145 | – |
| COc1cc2sc(C(=O)C[C@H](C)C(=O)O)cc2cc1CCNc1cc2cc(C(=O)C[C@H](C)C(=O)O)sc2cc1OC [Example 60, (2S)-4-{5-[2-({2-[(3S)-3-carboxybutanoyl]-6-methoxy-1-benzothiophen-5-yl}amino)ethyl]-6-methoxy-1-benzothiophen-2-yl}-2-methyl-4-oxobutanoic acid] | 67 | 19 | – | – | 106 | – |
| COc1cc2sc(CC[C@H](C)C(=O)O)cc2c(F)c1OCCCOc1c(OC)cc2sc(C(=O)C[C@H](C)C(=O)O)cc2c1Br [Example 148, (S)-4-(4-bromo-5-(3-((2-((S)-3-carboxybutyl)-4-fluoro-6-methoxybenzo[b]thiophen-5-yl)oxy)propoxy)-6-methoxybenzo[b]thiophen-2-yl)-2-methyl-4-oxobutanoic acid] | 411 | 395 | – | – | – | 41 |
| COc1cc2cc(C(=O)CCC(=O)O)sc2cc1OCCCOc1cc2sc(C(=O)CCC(=O)O)cc2cc1OC [Example 127, 4,4′-(6,6′-(propane-1,3-diylbis(oxy))bis(5-methoxybenzo[b]thiophene-6,2-diyl))bis(4-oxobutanoic acid)] | 270 | 16 | – | – | 120 | – |
| COc1cc2sc(CCC(C)(C)C(=O)O)cc2c(F)c1OCCCOc1c(OC)cc2sc(C(=O)CC(C)(C)C(=O)O)cc2c1F [Example 149, 4-(5-(3-((2-(3-carboxy-3-methylbutyl)-4-fluoro-6-methoxybenzo[b]thiophen-5-yl)oxy)propoxy)-4-fluoro-6-methoxybenzo[b]thiophen-2-yl)-2,2-dimethyl-4-oxobutanoic acid] | 46 | 4 | – | – | – | 70 |
| COc1cc2sc(C(=O)C[C@H](C)C(=O)O)cc2cc1OCCCCCCOc1c(OC)cc2sc(C(=O)C[C@H](C)C(=O)O)cc2c1F [Example 111, (S)-4-(5-((6-((2-((S)-3-carboxybutanoyl)-4-fluoro-6-methoxybenzo[b]thiophen-5-yl)oxy)hexyl)oxy)-6-methoxybenzo[b]thiophen-2-yl)-2-methyl-4-oxobutanoic acid] | – | 861 | 50 | – | – | 45 |
| COc1cc2sc(C(=O)C[C@H](C)C(=O)O)cc2cc1CCCc1cc2cc(C(=O)C[C@H](C)C(=O)O)sc2cc1OC [Example 2, (2S,2′S)-4,4′-[propane-1,3-diylbis(6-methoxy-1-benzothiene-5,2-diyl)]bis(2-methyl-4-oxobutanoic acid)] | 14 | 7 | – | – | 192 | – |
| COc1cc2sc(CC[C@H](C)C(=O)O)cc2cc1OCCCOc1c(O)cc2sc(C(=O)C[C@H](C)C(=O)O)cc2c1Cl [Example 184, (S)-4-(5-(3-((2-((S)-3-carboxybutyl)-6-methoxybenzo[b]thiophen-5-yl)oxy)propoxy)-4-chloro-6-hydroxybenzo[b]thiophen-2-yl)-2-methyl-4-oxobutanoic acid] | – | 353 | – | 29 | – | 10 |
| COc1cc2sc(C(=O)C[C@@H](C)C(=O)O)cc2cc1CCCOc1c(OC)cc2sc(C(=O)C[C@@H](C)C(=O)O)cc2c1F [Example 108, (R)-4-(5-(3-((2-((R)-3-carboxybutanoyl)-4-fluoro-6-methoxybenzo[b]thiophen-5-yl)oxy)propyl)-6-methoxybenzo[b]thiophen-2-yl)-2-methyl-4-oxobutanoic acid] | 244 | 35 | – | – | 86 | – |
| COc1cc2sc(C(=O)C[C@H](C)C(=O)O)cc2cc1OCCCc1nc2cc(C(=O)CCC(=O)O)sc2cc1OC [Example 15, (S)-4-(5-(3-(2-(3-carboxypropanoyl)-6-methoxythieno [3,2-b]pyridin-5-yl)propoxy)-6-methoxybenzo[b]thiophen-2-yl)-2-methyl-4-oxobutanoic acid] | 615 | 107 | – | – | 114 | – |

Now those with a lower EC50 (full-length HAQ STING), led by results:

| EC50 (full-length WT STING) [nM] | EC50 (full-length HAQ STING) [nM] | inhibition at 20 µM (full-length WT STING; at 20,000 nM compound) [%] | inhibition at 2 µM (full-length WT STING; at 2,000 nM compound) [%] | SMILES | activation at 30 µM [1] [%] | activation at 3 µM [1] [%] |
| --- | --- | --- | --- | --- | --- | --- |
| 4 | 1 | – | – | COc1cc2sc(C(=O)CCC(=O)O)cc2c(F)c1OCCOc1c(OC)cc2sc(C(=O)C[C@H](C)C(=O)O)cc2c1F [Example 63, (S)-4-(5-(2-((2-(3-carboxypropanoyl)-4-fluoro-6-methoxybenzo[b]thiophen-5-yl)oxy)ethoxy)-4-fluoro-6-methoxybenzo[b]thiophen-2-yl)-2-methyl-4-oxobutanoic acid] | 62 | – |
| 4 | 2 | – | – | COc1cc2sc(C(=O)C[C@H](C)C(=O)O)cc2cc1OCCCOc1cc2cc(C(=O)C[C@H](C)C(=O)O)sc2cc1OC [Example 52, (2S,2′S)-4,4′-((propane-1,3-diylbis(oxy))bis(6-methoxybenzo[b]thiophene-5,2-diyl))bis(2-methyl-4-oxobutanoic acid)] | 53 | – |
| 1 | 1 | – | – | COc1cc2sc(C(=O)CCC(=O)O)cc2c(F)c1OCCOc1c(OC)cc2sc(C(=O)CCC(=O)O)cc2c1F [Example 65, 4,4′-((ethane-1,2-diylbis(oxy))bis(4-fluoro-6-methoxybenzo[b]thiophene-5,2-diyl))bis(4-oxobutanoic acid)] | 105 | – |
| 1 | 1 | – | – | COc1cc2cc(C(=O)C[C@H](C)C(=O)O)sc2cc1OCCCOc1c(OC)cc2sc(C(=O)C[C@H](C)C(=O)O)cc2c1F [Example 70, (S)-4-(6-(3-((2-((S)-3-carboxybutanoyl)-4-fluoro-6-methoxybenzo[b]thiophen-5-yl)oxy)propoxy)-5-methoxybenzo[b]thiophen-2-yl)-2-methyl-4-oxobutanoic acid] | 47 | – |
| 2 | 1 | – | – | COc1cc2sc(CC[C@H](C)C(=O)O)cc2c(F)c1OCCCOc1c(OC)cc2sc(C(=O)C[C@H](C)C(=O)O)cc2c1F [Example 101, (S)-4-(5-(3-((2-((S)-3-carboxybutyl)-4-fluoro-6-methoxybenzo[b]thiophen-5-yl)oxy)propoxy)-4-fluoro-6-methoxybenzo[b]thiophen-2-yl)-2-methyl-4-oxobutanoic acid] | 85 | – |
| 3 | 3 | – | – | COc1cc2sc(C(=O)C[C@H](C)C(=O)O)cc2nc1OCCCc1c(OC)cc2sc(C(=O)C[C@H](C)C(=O)O)cc2c1F [Example 159, (S)-4-(5-(3-(2-((S)-3-carboxybutanoyl)-4-fluoro-6-methoxybenzo[b]thiophen-5-yl)propoxy)-6-methoxythieno[3,2-b]pyridin-2-yl)-2-methyl-4-oxobutanoic acid] | 99 | – |
| 2 | 1 | – | – | COc1cc2sc(C(=O)C[C@H](C)C(=O)O)cc2cc1CCCOc1c(OC)cc2sc(C(=O)C[C@H](C)C(=O)O)cc2c1F [Example 37, (S)-4-(5-(3-((2-((S)-3-carboxybutanoyl)-4-fluoro-6-methoxybenzo[b]thiophen-5-yl)oxy)propyl)-6-methoxybenzo[b]thiophen-2-yl)-2-methyl-4-oxobutanoic acid] | 76 | – |
| 4 | 1 | – | – | COc1cc2sc(C(=O)CCC(=O)O)cc2cc1CCCOc1c(OC)cc2sc(C(=O)C[C@H](C)C(=O)O)cc2c1F [Example 33, (S)-4-(5-(3-(2-(3-carboxypropanoyl)-6-methoxybenzo [b]thiophen-5-yl)propoxy)-4-fluoro-6-methoxybenzo[b]thiophen-2-yl)-2-methyl-4-oxobutanoic acid] | 104 | – |
| 1 | 1 | – | – | COc1cc2sc(C(=O)C[C@H](C)C(=O)O)cc2c(F)c1OCCCOc1c(O)cc2sc(C(=O)C[C@H](C)C(=O)O)cc2c1Cl [Example 185, (S)-4-(5-(3-((2-((S)-3-carboxybutanoyl)-4-chloro-6-hydroxybenzo[b]thiophen-5-yl)oxy)propoxy)-4-fluoro-6-methoxybenzo[b]thiophen-2-yl)-2-methyl-4-oxobutanoic acid] | – | 122 |
